Experimental data taken from patent US20260130395A1, “Water Dispersible Botanical Compositions” (Aquila Black Limited, priority 2021, published 2026).

Assay: Stability of cannabinoid entourage and Vitamin E components of the powder concentrate by LCMSMS
Assay type: physicochemical
Details: for Stability of Plant-Derived Cannabinoid Compounds in Powder Concentrate: powder stored at 21-25° C.
Procedure: At each time period, 0.05 g of powder was dissolved in 10 ml-15 of ethanol, diluted to fall within the analytical range, and injected into the LCMSMS for analysis.

## CCCCCc1cc(O)c2c(c1)OC(C)(C)[C@@H]1CCC(C)=C[C@@H]21 [D9 THC, delta-9-tetrahydrocannabinol, reference compound]
Powder concentrate stored at 21-25° C., 570 days
  degradation over the entire period (in words): no significant degradation
0 days
  Stability of Plant-Derived Cannabinoid Compounds in Powder Concentrate: 2.55 mg/g powder
1 days
  Stability of Plant-Derived Cannabinoid Compounds in Powder Concentrate: 2.55 mg/g powder
2 days
  Stability of Plant-Derived Cannabinoid Compounds in Powder Concentrate: 2.46 mg/g powder
3 days
  Stability of Plant-Derived Cannabinoid Compounds in Powder Concentrate: 2.63 mg/g powder
5 days
  Stability of Plant-Derived Cannabinoid Compounds in Powder Concentrate: 2.66 mg/g powder
8 days
  Stability of Plant-Derived Cannabinoid Compounds in Powder Concentrate: 2.49 mg/g powder
9 days
  Stability of Plant-Derived Cannabinoid Compounds in Powder Concentrate: 2.49 mg/g powder
10 days
  Stability of Plant-Derived Cannabinoid Compounds in Powder Concentrate: 2.60 mg/g powder
11 days
  Stability of Plant-Derived Cannabinoid Compounds in Powder Concentrate: 2.58 mg/g powder
12 days
  Stability of Plant-Derived Cannabinoid Compounds in Powder Concentrate: 2.65 mg/g powder
15 days
  Stability of Plant-Derived Cannabinoid Compounds in Powder Concentrate: 2.49 mg/g powder
16 days
  Stability of Plant-Derived Cannabinoid Compounds in Powder Concentrate: 2.54 mg/g powder
17 days
  Stability of Plant-Derived Cannabinoid Compounds in Powder Concentrate: 2.54 mg/g powder
18 days
  Stability of Plant-Derived Cannabinoid Compounds in Powder Concentrate: 2.55 mg/g powder
19 days
  Stability of Plant-Derived Cannabinoid Compounds in Powder Concentrate: 2.51 mg/g powder
22 days
  Stability of Plant-Derived Cannabinoid Compounds in Powder Concentrate: 2.46 mg/g powder
23 days
  Stability of Plant-Derived Cannabinoid Compounds in Powder Concentrate: 2.65 mg/g powder
24 days
  Stability of Plant-Derived Cannabinoid Compounds in Powder Concentrate: 2.60 mg/g powder
25 days
  Stability of Plant-Derived Cannabinoid Compounds in Powder Concentrate: 2.55 mg/g powder
26 days
  Stability of Plant-Derived Cannabinoid Compounds in Powder Concentrate: 2.52 mg/g powder
29 days
  Stability of Plant-Derived Cannabinoid Compounds in Powder Concentrate: 2.47 mg/g powder
30 days
  Stability of Plant-Derived Cannabinoid Compounds in Powder Concentrate: 2.66 mg/g powder
60 days
  Stability of Plant-Derived Cannabinoid Compounds in Powder Concentrate: 2.66 mg/g powder
90 days
  Stability of Plant-Derived Cannabinoid Compounds in Powder Concentrate: 2.49 mg/g powder
120 days
  Stability of Plant-Derived Cannabinoid Compounds in Powder Concentrate: 2.66 mg/g powder
150 days
  Stability of Plant-Derived Cannabinoid Compounds in Powder Concentrate: 2.61 mg/g powder
180 days
  Stability of Plant-Derived Cannabinoid Compounds in Powder Concentrate: 2.59 mg/g powder
210 days
  Stability of Plant-Derived Cannabinoid Compounds in Powder Concentrate: 2.54 mg/g powder
240 days
  Stability of Plant-Derived Cannabinoid Compounds in Powder Concentrate: 2.53 mg/g powder
270 days
  Stability of Plant-Derived Cannabinoid Compounds in Powder Concentrate: 2.47 mg/g powder
300 days
  Stability of Plant-Derived Cannabinoid Compounds in Powder Concentrate: 2.57 mg/g powder
330 days
  Stability of Plant-Derived Cannabinoid Compounds in Powder Concentrate: 2.49 mg/g powder
360 days
  Stability of Plant-Derived Cannabinoid Compounds in Powder Concentrate: 2.58 mg/g powder
390 days
  Stability of Plant-Derived Cannabinoid Compounds in Powder Concentrate: 2.48 mg/g powder
420 days
  Stability of Plant-Derived Cannabinoid Compounds in Powder Concentrate: 2.53 mg/g powder
450 days
  Stability of Plant-Derived Cannabinoid Compounds in Powder Concentrate: 2.61 mg/g powder
480 days
  Stability of Plant-Derived Cannabinoid Compounds in Powder Concentrate: 2.65 mg/g powder
510 days
  Stability of Plant-Derived Cannabinoid Compounds in Powder Concentrate: 2.64 mg/g powder
540 days
  Stability of Plant-Derived Cannabinoid Compounds in Powder Concentrate: 2.47 mg/g powder
570 days
  Stability of Plant-Derived Cannabinoid Compounds in Powder Concentrate: 2.64 mg/g powder

## C=C(C)[C@@H]1CCC(C)=C[C@H]1c1c(O)cc(CCCCC)c(C(=O)O)c1O [CBDA, cannabidiolic acid]
0 days
  Stability of Plant-Derived Cannabinoid Compounds in Powder Concentrate: 0.410 mg/g powder
1 days
  Stability of Plant-Derived Cannabinoid Compounds in Powder Concentrate: 0.412 mg/g powder
2 days
  Stability of Plant-Derived Cannabinoid Compounds in Powder Concentrate: 0.407 mg/g powder
3 days
  Stability of Plant-Derived Cannabinoid Compounds in Powder Concentrate: 0.406 mg/g powder
5 days
  Stability of Plant-Derived Cannabinoid Compounds in Powder Concentrate: 0.414 mg/g powder
8 days
  Stability of Plant-Derived Cannabinoid Compounds in Powder Concentrate: 0.415 mg/g powder
9 days
  Stability of Plant-Derived Cannabinoid Compounds in Powder Concentrate: 0.410 mg/g powder
10 days
  Stability of Plant-Derived Cannabinoid Compounds in Powder Concentrate: 0.418 mg/g powder
11 days
  Stability of Plant-Derived Cannabinoid Compounds in Powder Concentrate: 0.415 mg/g powder
12 days
  Stability of Plant-Derived Cannabinoid Compounds in Powder Concentrate: 0.396 mg/g powder
15 days
  Stability of Plant-Derived Cannabinoid Compounds in Powder Concentrate: 0.399 mg/g powder
16 days
  Stability of Plant-Derived Cannabinoid Compounds in Powder Concentrate: 0.427 mg/g powder
17 days
  Stability of Plant-Derived Cannabinoid Compounds in Powder Concentrate: 0.421 mg/g powder
18 days
  Stability of Plant-Derived Cannabinoid Compounds in Powder Concentrate: 0.418 mg/g powder
19 days
  Stability of Plant-Derived Cannabinoid Compounds in Powder Concentrate: 0.414 mg/g powder
22 days
  Stability of Plant-Derived Cannabinoid Compounds in Powder Concentrate: 0.419 mg/g powder
23 days
  Stability of Plant-Derived Cannabinoid Compounds in Powder Concentrate: 0.396 mg/g powder
24 days
  Stability of Plant-Derived Cannabinoid Compounds in Powder Concentrate: 0.403 mg/g powder
25 days
  Stability of Plant-Derived Cannabinoid Compounds in Powder Concentrate: 0.401 mg/g powder
26 days
  Stability of Plant-Derived Cannabinoid Compounds in Powder Concentrate: 0.397 mg/g powder
29 days
  Stability of Plant-Derived Cannabinoid Compounds in Powder Concentrate: 0.426 mg/g powder
30 days
  Stability of Plant-Derived Cannabinoid Compounds in Powder Concentrate: 0.405 mg/g powder
60 days
  Stability of Plant-Derived Cannabinoid Compounds in Powder Concentrate: 0.418 mg/g powder
90 days
  Stability of Plant-Derived Cannabinoid Compounds in Powder Concentrate: 0.413 mg/g powder
120 days
  Stability of Plant-Derived Cannabinoid Compounds in Powder Concentrate: 0.403 mg/g powder
150 days
  Stability of Plant-Derived Cannabinoid Compounds in Powder Concentrate: 0.412 mg/g powder
180 days
  Stability of Plant-Derived Cannabinoid Compounds in Powder Concentrate: 0.422 mg/g powder
210 days
  Stability of Plant-Derived Cannabinoid Compounds in Powder Concentrate: 0.427 mg/g powder
240 days
  Stability of Plant-Derived Cannabinoid Compounds in Powder Concentrate: 0.417 mg/g powder
270 days
  Stability of Plant-Derived Cannabinoid Compounds in Powder Concentrate: 0.424 mg/g powder
300 days
  Stability of Plant-Derived Cannabinoid Compounds in Powder Concentrate: 0.409 mg/g powder
330 days
  Stability of Plant-Derived Cannabinoid Compounds in Powder Concentrate: 0.424 mg/g powder
360 days
  Stability of Plant-Derived Cannabinoid Compounds in Powder Concentrate: 0.413 mg/g powder
390 days
  Stability of Plant-Derived Cannabinoid Compounds in Powder Concentrate: 0.407 mg/g powder
420 days
  Stability of Plant-Derived Cannabinoid Compounds in Powder Concentrate: 0.420 mg/g powder
450 days
  Stability of Plant-Derived Cannabinoid Compounds in Powder Concentrate: 0.398 mg/g powder
480 days
  Stability of Plant-Derived Cannabinoid Compounds in Powder Concentrate: 0.418 mg/g powder
510 days
  Stability of Plant-Derived Cannabinoid Compounds in Powder Concentrate: 0.411 mg/g powder
540 days
  Stability of Plant-Derived Cannabinoid Compounds in Powder Concentrate: 0.425 mg/g powder
570 days
  Stability of Plant-Derived Cannabinoid Compounds in Powder Concentrate: 0.408 mg/g powder
